Assay results published in PubChem BioAssay (NCI).
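All cell lines were grown in 96-well plates and treated with compound for 48 hours. The concentration for full growth arrest is given as TGI.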

Key:
Test in all cases: growth of human tumour cells (NCI), 48 h
COLO 205 colon = tested on: COLO 205 colon
HCC-2998 colon = tested on: HCC-2998 colon
MCF7 breast = tested on: MCF7 breast
NCI-H460 lung = tested on: NCI-H460 lung
SNB-19 CNS = tested on: SNB-19 CNS
U251 CNS = tested on: U251 CNS
OVCAR-8 ovarian = tested on: OVCAR-8 ovarian
SF-539 CNS = tested on: SF-539 CNS

| Compound | TGI (COLO 205 colon) [µM] | TGI (HCC-2998 colon) [µM] | TGI (MCF7 breast) [µM] | TGI (NCI-H460 lung) [µM] | TGI (SNB-19 CNS) [µM] | TGI (U251 CNS) [µM] | TGI (OVCAR-8 ovarian) [µM] | TGI (SF-539 CNS) [µM] |
| --- | --- | --- | --- | --- | --- | --- | --- | --- |
| O=C(OCC(Cl)(Cl)Cl)O[C@@H]1CCCC1(c1ccccc1)c1ccccc1 | > 100 | > 100 | > 100 | > 100 | > 100 | > 100 | – | – |
| CC(=O)Oc1ccc(/C=C/C(=O)O[C@@H](C(=O)O)[C@@H](OC(=O)/C=C/c2ccc(OC(C)=O)c(OC(C)=O)c2)C(=O)O)cc1OC(C)=O | > 100 | > 100 | > 100 | > 100 | > 100 | > 100 | > 100 | – |
| NC(Cc1ccc(S(=O)(=O)O)cc1)C(=O)NC(Cc1ccc(S(=O)(=O)O)cc1)C(=O)O (stereo not given) | > 100 | > 100 | > 100 | > 100 | – | > 100 | > 100 | > 100 |
| O=C1c2cn[nH]c2C(c2ccccc2)N1c1ccccc1 (stereo not given) | > 10 | > 10 | > 10 | > 10 | > 10 | > 10 | > 10 | > 10 |
| C[C@@H]1S[C@H](c2c(Cl)cccc2Cl)N2Cc3ccccc3N=C12 | > 100 | > 100 | > 100 | > 100 | > 100 | > 100 | – | > 100 |
| N#C[C@H](c1nc2ccccc2s1)c1nc2ccccc2nc1Cl | > 100 | 7.09 | 24.8 | 47.3 | > 100 | > 100 | > 100 | > 100 |
| COc1ccc(C(C2=C(O)COC2=O)c2cc3c(cc2O)OCO3)cc1OC (stereo not given) | > 100 | > 100 | > 100 | > 100 | > 100 | – | > 100 | > 100 |
| C[N+]1(CCN[N+]2(C)CCCCC2)CCc2ccccc2C1 (stereo not given) | > 100 | > 100 | > 100 | > 100 | > 100 | > 100 | > 100 | > 100 |
| C[C@H](C/C=C/C(C)(C)O)[C@H]1CC[C@@]2(C)[C@@H]3CC[C@H]4C(C)(C)[C@@H](O)CC[C@@]45C[C@@]35CC[C@]12C | – | – | > 100 | 54.2 | 54.9 | 53.8 | 33.4 | 30.8 |
| S=C(Nc1ccc2cn[nH]c2c1)Nc1ccc2cn[nH]c2c1 | > 100 | > 100 | > 100 | > 100 | > 100 | > 100 | > 100 | > 100 |
| COc1ccc(-n2sc3ncccc3c2=O)cc1 | 35 | > 100 | 49.1 | > 100 | > 100 | 44.6 | 70.3 | 37.7 |
| CSC1NC(c2ccc(Cl)cc2)=C(C#N)C(=O)N1C1OCC(OC(C)=O)C(OC(C)=O)C1OC(C)=O (stereo not given) | > 100 | > 100 | > 100 | > 100 | > 100 | > 100 | > 100 | > 100 |
| C[Si](C)(C)C1=C([Si](C)(C)C)C(Cl)(Cl)C1=O | 4.87 | 17.6 | 23.4 | 32.2 | 36.5 | 11.3 | 9.78 | 12.7 |
| O=C(CCc1ccccc1)On1c(-c2ccccc2)nc2ccccc2c1=S | > 100 | 27.8 | > 100 | > 100 | > 100 | > 100 | 64.6 | 20.7 |
| Cc1nc2c(=S)n(C)ncc2[nH]1 | > 100 | > 100 | > 100 | – | – | > 100 | > 100 | > 100 |
| COc1ccc(C(OCC2OC(n3ccc(NC(=O)c4ccccc4)nc3=O)CC2OP2(=S)SCCS2)(c2ccccc2)c2ccc(OC)cc2)cc1 (stereo not given) | > 10 | – | > 100 | > 100 | 86.4 | 86.5 | 63.2 | – |
| O=[N+]([O-])c1ccc(O)c(/C=N/NC(=S)N2CCCCC2)c1 | > 37.9 | 34.1 | > 100 | 38.3 | > 53.6 | 90.3 | 4.66 | > 100 |
| COc1ccc(/C=C/C2=NN(c3cccc(S(=O)(=O)O)c3)C3(C2)SCC(=O)N3c2nc3ccccc3s2)cc1 (stereo not given) | > 100 | > 100 | > 100 | > 100 | > 100 | > 100 | > 100 | > 100 |
| COc1ccc(/C=N/n2cnc3[nH]c(C)c(Cc4ccccc4)c3c2=N)cc1 | > 100 | > 100 | > 100 | > 100 | > 100 | > 100 | > 100 | – |
| Cn1c(N/N=C/c2ccccc2)nc(-c2ccc([N+](=O)[O-])cc2)c(C#N)c1=O | > 100 | – | > 100 | > 100 | > 100 | > 100 | > 100 | > 100 |
| Clc1ccc(OCc2nn3c(CCc4nnc5sc(COc6ccc(Cl)cc6)nn45)nnc3s2)cc1 | – | – | 92.8 | 51.4 | – | 54.6 | 35.8 | > 100 |
| O=C(NC(=S)NC(=O)c1cc(O)c(O)c(O)c1)c1cc(O)c(O)c(O)c1 | 46.7 | 87.9 | > 100 | > 100 | 52.8 | 84.9 | 44.5 | > 100 |
| COc1ccccc1C[C@@H]1OC2(C=CC(=O)C=C2)O[C@H]1Cc1ccccc1OC | 14.9 | – | 17.6 | > 50 | 24.2 | 19.4 | 3.46 | 15.6 |
| COc1cc(C2c3cc4c(cc3OC(NCCO)C2C)OCO4)cc(OC)c1OC (stereo not given) | 12.3 | > 23.2 | > 100 | > 100 | > 100 | 12.5 | > 100 | 0.635 |
| COc1cc(C2c3cc4c(cc3OC(N3CCNCC3)C2C)OCO4)cc(OC)c1OC (stereo not given) | 2 | 5.83 | 66.1 | 10.9 | > 82.3 | > 43.8 | > 37.8 | 1.94 |
| COc1cc(N(Cc2ccc3oc(=O)c(-c4ccccc4)nc3c2)Cc2ccc3oc(=O)c(-c4ccccc4)nc3c2)cc(OC)c1OC | > 10 | > 10 | > 10 | > 10 | > 10 | > 10 | > 10 | > 10 |
